Experimental findings from US8362012B2, “Benzoxazine benzimidazole derivative, a pharmaceutical composition comprising the same, and a use thereof” (Daewoong Pharmaceutical Co., Ltd., priority 2008, dated 2013) are described below.

Broadly, the IC50 is the midpoint of a concentration-inhibition curve.

For assay [1], the target named is T1, human vanilloid-1 (hVR-1) in hVR-1-HEK293 cell line (Homo sapiens, UniProt Q8NER1).
T1 construct: expressed in transfected cells; host or cells: HEK293 Tet-on strain, doxycycline-induced
Briefly: Inhibitory effect on calcium influx via a vanilloid receptor (capsaicin-stimulated, Fluo-3/AM). The settings on record: hVR-1-HEK293 cells, 1 μM of capsaicin, compounds 0.015˜2000 nM; read-out: I.A. (inhibitory activity), IC50 on intracellular calcium influx. The format is cell-based. The procedure, abridged: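 Doxycycline-induced (1 μg/mL, 2 days) hVR-1-HEK293 cells loaded with Fluo-3/AM for 90 min at 37° C, then stimulated with 1 μM capsaicin. Calcium influx expressed as background-corrected fluorescence relative to positive control, analysed by Hill equation and graded by activity criteria.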
For orientation: Calcium assays in cells follow changes in intracellular calcium, usually with a dye or a luminescent sensor.

The next assay concerns ICR male mice. Briefly: Phenyl-p-quinone (PBQ)-induced writhing experiment using mice. The format is in vivo. The settings on record: orally administered, PBQ (0.02%) intraperitoneally after 1 hour, writhing counted for 10 min. The method, then: In order to evaluate the effect on pain of the compounds prepared in the Examples, behaviors such as twisting or writhing of body resulted from pain were verified by the phenyl-p-quinone (PBQ)-induced writhing experiment using mice. 5 week-old ICR male mice were used as experimental animals and PBQ (0.02%), as a chemical stimulator. The suspensions of 20 mg of the compounds of the present invention and an excipient such as Na—CMC (sodium carboxymethyl cellulose) in 10 mL of saline were used as test compounds. The test compounds were orally administered to the mice and after 1 hour, PBQ was intraperitoneally administrated in an amount of 10 mL per kg of body weight. Also, as a control group, equivalent amounts of BCTC were administered. The writhing number of each mouse was measured for 10 min starting from 5 min after the administration, and the analgesic effect was verified by counting the reduced number compared to the control group administered with only excipient and calculating the % inhibitory rate according to the following Formula 2. % inhibition rate=(writhing # of control group−writhing # of test group)/writhing # of control group×100 [Formula 2]

SMILES strings stand for the structures.

T1 sequence (Q8NER1 whole entry): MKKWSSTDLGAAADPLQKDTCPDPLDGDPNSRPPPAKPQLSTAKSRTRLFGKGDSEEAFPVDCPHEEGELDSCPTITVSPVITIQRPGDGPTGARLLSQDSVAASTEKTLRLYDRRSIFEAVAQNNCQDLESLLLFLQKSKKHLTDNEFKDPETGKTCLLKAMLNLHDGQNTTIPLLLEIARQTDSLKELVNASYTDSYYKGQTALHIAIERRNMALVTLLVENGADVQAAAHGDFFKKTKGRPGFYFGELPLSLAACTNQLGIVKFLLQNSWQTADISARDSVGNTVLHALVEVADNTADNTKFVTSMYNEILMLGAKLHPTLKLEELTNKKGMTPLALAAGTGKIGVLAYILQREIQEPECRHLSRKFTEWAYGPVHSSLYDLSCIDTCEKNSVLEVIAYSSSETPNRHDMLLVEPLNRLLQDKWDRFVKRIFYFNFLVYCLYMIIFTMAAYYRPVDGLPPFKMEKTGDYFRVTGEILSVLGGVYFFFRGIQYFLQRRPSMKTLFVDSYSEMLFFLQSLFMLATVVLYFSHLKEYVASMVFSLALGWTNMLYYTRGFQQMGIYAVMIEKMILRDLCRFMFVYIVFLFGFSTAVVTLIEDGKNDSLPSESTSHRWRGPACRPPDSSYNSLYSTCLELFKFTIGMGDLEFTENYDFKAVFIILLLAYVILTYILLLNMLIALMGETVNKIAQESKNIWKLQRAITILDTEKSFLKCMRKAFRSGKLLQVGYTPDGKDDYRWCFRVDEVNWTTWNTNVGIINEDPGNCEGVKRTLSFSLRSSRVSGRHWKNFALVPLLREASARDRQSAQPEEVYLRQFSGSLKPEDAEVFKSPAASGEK

In the case of `Cc1ccc(N2c3cccc(-c4nc5c(Br)cc(C(F)(F)F)cc5[nH]4)c3OC[C@@H]2CO)nc1` [Example 41, [(S)-8-(4-bromo-6-trifluoromethyl-1H-benzimidazol-2-yl)-4-(5-methyl-pyridin-2-yl)-3,4-dihydro-2H-benzo[1,4]oxazin-3-yl]-methanol], the IC50 in assay [1] is under 20 nM. Further, in the assay on ICR male mice, the “I.A. (inhibitory activity), % inhibition rate of writhing” value was “++ (20˜50%)”.
`Cc1ccc(N2c3cccc(-c4nc5c(Br)cc(Br)cc5[nH]4)c3OC[C@@H]2CO)nc1` [Example 42, [(S)-8-(4,6-dibromo-1H-benzimidazol-2-yl)-4-(5-methyl-pyridin-2-yl)-3,4-dihydro-2H-benzo[1,4]oxazin-3-yl]-methanol]: the IC50 in assay [1] is 20 to 100 nM. The “I.A. (inhibitory activity), % inhibition rate of writhing” value in the assay with ICR male mice is “+++ (51-80%)”.
The corresponding values for `Cc1ccc(N2c3cccc(-c4nc5c(F)cc(Br)cc5[nH]4)c3OC[C@@H]2CO)nc1` [Example 43, [(S)-8-(6-bromo-4-fluoro-1H-benzimidazol-2-yl)-4-(5-methyl-pyridin-2-yl)-3,4-dihydro-2H-benzo[1,4]oxazin-3-yl]-methanol] are under 20 nM and “++ (20˜50%)”.
For the compound `Cc1ccc(N2c3cccc(-c4nc5cc(F)c(F)cc5[nH]4)c3OC[C@@H]2CO)nc1` [Example 44, [(S)-8-(5,6-difluoro-1H-benzimidazol-2-yl)-4-(5-methyl-pyridin-2-yl)-3,4-dihydro-2H-benzo[1,4]oxazin-3-yl]-methanol], the IC50 in assay [1] is under 20 nM. Besides, the “I.A. (inhibitory activity), % inhibition rate of writhing” value with ICR male mice is “++++ (>80%)”.
With `Cc1ccc(N2c3cccc(-c4nc5cc(F)c(Cl)cc5[nH]4)c3OC[C@@H]2CO)nc1` [Example 45, [(S)-8-(6-chloro-5-fluoro-1H-benzimidazol-2-yl)-4-(5-methyl-pyridin-2-yl)-3,4-dihydro-2H-benzo[1,4]oxazin-3-yl]-methanol], the IC50 in assay [1] was under 20 nM. Moreover, in the assay on ICR male mice, the “I.A. (inhibitory activity), % inhibition rate of writhing” value is recorded as “+++ (51-80%)”.
For the compound `Cc1ccc(N2c3cccc(-c4nc5c(C)cc(Br)cc5[nH]4)c3OC[C@@H]2CO)nc1` [Example 46, [(S)-8-(6-bromo-4-methyl-1H-benzimidazol-2-yl)-4-(5-methyl-pyridin-2-yl)-3,4-dihydro-2H-benzo[1,4]oxazin-3-yl]-methanol], in assay [1], the IC50 is under 20 nM. Further, in the assay on ICR male mice, the “I.A. (inhibitory activity), % inhibition rate of writhing” value is on record as “++ (20˜50%)”.
On to `Cc1ccc(N2c3cccc(-c4nc5ccc(OC(F)(F)F)cc5[nH]4)c3OC[C@@H]2CO)nc1` [Example 47, [(S)-4-(5-methyl-pyridin-2-yl)-8-(6-trifluoromethoxy-1H-benzimidazol-2-yl)-3,4-dihydro-2H-benzo[1,4]oxazin-3-yl]-methanol], for which the IC50 in assay [1] was under 20 nM. Besides, the “I.A. (inhibitory activity), % inhibition rate of writhing” value with ICR male mice is “++ (20˜50%)”.
The corresponding values for `COc1ccc2nc(-c3cccc4c3OC[C@H](CO)N4c3ccc(C)cn3)[nH]c2c1` [Example 48, [(S)-8-(6-methoxy-1H-benzimidazol-2-yl)-4-(5-methyl-pyridin-2-yl)-3,4-dihydro-2H-benzo[1,4]oxazin-3-yl]-methanol] are 20 to 100 nM and “++ (20˜50%)”.
Regarding `Cc1ccc(N2c3cccc(-c4nc5ccc(F)cc5[nH]4)c3OC[C@@H]2CO)nc1` [Example 49, [(S)-8-(6-fluoro-1H-benzimidazol-2-yl)-4-(5-methyl-pyridin-2-yl)-3,4-dihydro-2H-benzo[1,4]oxazin-3-yl]-methanol], the IC50 in assay [1] was under 20 nM. Further, the “I.A. (inhibitory activity), % inhibition rate of writhing” value in the assay with ICR male mice was “+++ (51-80%)”.
Taken in the same sequence, the figures for `Cc1ccc(N2c3cccc(-c4nc5c(C)cccc5[nH]4)c3OC[C@@H]2CO)nc1` [Example 50, [(S)-8-(4-methyl-1H-benzimidazol-2-yl)-4-(5-methyl-pyridine-2-yl)-3,4-dihydro-2H-benzo[1,4]oxazin-3-yl]-methanol] were under 20 nM and “+ (<20%)”.
Regarding `Cc1ccc(N2c3cccc(-c4nc5cc(C)ccc5[nH]4)c3OC[C@@H]2CO)nc1` [Example 51, [(S)-8-(5-methyl-1H-benzimidazol-2-yl)-4-(5-methyl-pyridin-2-yl)-3,4-dihydro-2H-benzo[1,4]oxazin-3-yl]-methanol], in assay [1], the IC50 is under 20 nM. In addition, the “I.A. (inhibitory activity), % inhibition rate of writhing” value in the assay on ICR male mice was “+ (<20%)”.
In the case of `Cc1ccc(N2c3cccc(-c4nc5c(C)c(C)ccc5[nH]4)c3OC[C@@H]2CO)nc1` [Example 52, [(S)-8-(4,5-dimethyl-1H-benzimidazol-2-yl)-4-(5-methyl-pyridin-2-yl)-3,4-dihydro-2H-benzo[1,4]oxazin-3-yl]-methanol], in assay [1], the IC50 was under 20 nM. Also, the “I.A. (inhibitory activity), % inhibition rate of writhing” value with ICR male mice was “++ (20˜50%)”.
Turning to `Cc1ccc(N2c3cccc(-c4nc5ccccc5[nH]4)c3OC[C@@H]2CO)nc1` [Example 53, [(S)-8-(1H-benzimidazol-2-yl)-4-(5-methyl-pyridin-2-yl)-3,4-dihydro-2H-benzo[1,4]oxazin-3-yl]-methanol], the IC50 in assay [1] is under 20 nM. Further, the “I.A. (inhibitory activity), % inhibition rate of writhing” value in the assay with ICR male mice is reported as “+ (<20%)”.
`C=Cc1ccc(N2c3cccc(-c4nc5ccc(Cl)cc5[nH]4)c3OC[C@@H]2CO)nc1` [Example 59, [(S)-8-(6-chloro-1H-benzimidazol-2-yl)-4-(5-vinyl-pyridin-2-yl)-3,4-dihydro-2H-benzo[1,4]oxazin-3-yl]-methanol]: the IC50 in assay [1] was under 20 nM. Besides, the “I.A. (inhibitory activity), % inhibition rate of writhing” value with ICR male mice was “+++ (51-80%)”.
On to `C=Cc1ccc(N2c3cccc(-c4nc5ccc(Br)cc5[nH]4)c3OC[C@@H]2CO)nc1` [Example 60, [(S)-8-(6-bromo-1H-benzimidazol-2-yl)-4-(5-vinyl-pyridin-2-yl)-3,4-dihydro-2H-benzo[1,4]oxazin-3-yl]-methanol], for which the IC50 in assay [1] was under 20 nM. Besides, the “I.A. (inhibitory activity), % inhibition rate of writhing” value in the assay on ICR male mice was “+++ (51-80%)”.
Taken in the same sequence, the figures for `C=Cc1ccc(N2c3cccc(-c4nc5c(C)cc(Br)cc5[nH]4)c3OC[C@@H]2CO)nc1` [Example 66, [(S)-8-(6-bromo-4-methyl-1H-benzimidazol-2-yl)-4-(5-vinyl-pyridin-2-yl)-3,4-dihydro-2H-benzo[1,4]oxazin-3-yl]-methanol] were under 20 nM and “+++ (51-80%)”.
The corresponding values for `C=Cc1ccc(N2c3cccc(-c4nc5ccc(OC(F)(F)F)cc5[nH]4)c3OC[C@@H]2CO)nc1` [Example 67, [(S)-8-(6-trifluoromethoxy-1H-benzimidazol-2-yl)-4-(5-vinyl-pyridin-2-yl)-3,4-dihydro-2H-benzo[1,4]oxazin-3-yl]-methanol] are under 20 nM and “+++ (51-80%)”.
As to `C=Cc1ccc(N2c3cccc(-c4nc5cc(Cl)c(Cl)cc5[nH]4)c3OC[C@@H]2CO)nc1` [Example 68, [(S)-8-(5,6-dichloro-1H-benzimidazol-2-yl)-4-(5-vinyl-pyridin-2-yl)-3,4-dihydro-2H-benzo[1,4]oxazin-3-yl]-methanol], the IC50 in assay [1] was under 20 nM. Besides, the “I.A. (inhibitory activity), % inhibition rate of writhing” value with ICR male mice is on record as “+++ (51-80%)”.
With `C=Cc1ccc(N2c3cccc(-c4nc5cc(F)c(F)cc5[nH]4)c3OC[C@@H]2CO)nc1` [Example 69, [(S)-8-(5,6-difluoro-1H-benzimidazol-2-yl)-4-(5-vinyl-pyridin-2-yl)-3,4-dihydro-2H-benzo[1,4]oxazin-3-yl]-methanol], in assay [1], the IC50 was in the range of 20 to 100 nM. In addition, in the assay on ICR male mice, the “I.A. (inhibitory activity), % inhibition rate of writhing” value is listed as “+++ (51-80%)”.
